Data: patent US11661426B2, “Imidazole-containing inhibitors of ALK2 kinase” (BioCryst Pharmaceuticals, Inc., priority 2017, dated 2023)

Target: ALK2 (Homo sapiens (Human), UniProt Q04771)
Test: ALK2 inhibition, LanthaScreen Eu Kinase Binding Assay (ThermoFisher Scientific / Life Technologies)
Settings: read-out: Measured Ki (IC50) Value for Compounds: IC50
Procedure: Biochemical assays to measure the inhibitory effects of the compounds were performed by ThermoFisher Scientific (Life Technologies). ALK2 inhibition was tested using LanthaScreen™ Eu Kinase Binding Assay screening protocol.

ALK2, sequence (Q04771 21-509): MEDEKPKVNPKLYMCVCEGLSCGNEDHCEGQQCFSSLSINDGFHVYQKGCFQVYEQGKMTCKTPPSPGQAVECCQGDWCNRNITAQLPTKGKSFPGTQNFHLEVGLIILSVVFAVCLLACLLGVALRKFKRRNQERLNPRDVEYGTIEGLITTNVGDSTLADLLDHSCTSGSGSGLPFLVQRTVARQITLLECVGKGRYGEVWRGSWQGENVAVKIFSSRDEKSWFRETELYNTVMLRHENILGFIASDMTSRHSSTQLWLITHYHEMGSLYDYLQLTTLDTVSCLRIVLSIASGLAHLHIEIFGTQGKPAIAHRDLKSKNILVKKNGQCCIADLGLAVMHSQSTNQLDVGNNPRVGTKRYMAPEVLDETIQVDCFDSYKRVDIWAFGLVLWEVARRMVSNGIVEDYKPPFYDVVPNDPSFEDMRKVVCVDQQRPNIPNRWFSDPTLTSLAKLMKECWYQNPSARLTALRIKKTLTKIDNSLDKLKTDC

Row | SMILES | IC50
1 | COc1cc(-n2cnc(Nc3nc4c(c(N5CCC[C@H]5CO)n3)COC4)c2)cc(OC)c1OC [Compound 279c, (S)-(1-(2-((1-(3,4,5-trimethoxyphenyl)-1H-imidazol-4-yl)amino)-5,7-dihydrofuro[3,4-d]pyrimidin-4-yl)pyrrolidin-2-yl)methanol] | < 100 nM
2 | COc1cc(-n2cnc(Nc3nc4c(c(N5CCC[C@@H]5CO)n3)COC4)c2)cc(OC)c1OC [Compound 280b, (R)-(1-(2-((1-(3,4,5-trimethoxyphenyl)-1H-imidazol-4-yl)amino)-5,7-dihydrofuro[3,4-d]pyrimidin-4-yl)pyrrolidin-2-yl)methanol] | < 100 nM
3 | COc1cc(-n2cnc(Nc3nc(N4CCC[C@H]4CO)nc4c3COC4)c2)cc(OC)c1OC [Compound 281b, (S)-(1-(4-((1-(3,4,5-trimethoxyphenyl)-1H-imidazol-4-yl)amino)-5,7-dihydrofuro[3,4-d]pyrimidin-2-yl)pyrrolidin-2-yl)methanol] | < 100 nM
4 | COc1cc(-n2cnc(Nc3nc(N4CCC[C@@H]4CO)nc4c3COC4)c2)cc(OC)c1OC [Compound 282a, (R)-(1-(4-((1-(3,4,5-trimethoxyphenyl)-1H-imidazol-4-yl)amino)-5,7-dihydrofuro[3,4-d]pyrimidin-2-yl)pyrrolidin-2-yl)methanol] | < 100 nM
5 | COc1cc(-n2cnc(Nc3nc(N4CC[C@@H](CO)C4)c4cccn4n3)c2)cc(OC)c1OC [Compound 283b, (R)-(1-(2-(1-(3,4,5-trimethoxyphenyl)-1H-imidazol-4-ylamino)pyrrolo[1,2-f][1,2,4]triazin-4-yl)pyrrolidin-3-yl)methanol] | < 100 nM
6 | COc1cc(-n2cnc(Nc3nc(N4CCC[C@H]4CO)nc4cc(C(F)(F)F)ccc34)c2)cc(OC)c1OC [Compound 284c, (S)-(1-(7-(trifluoromethyl)-4-((1-(3,4,5-trimethoxyphenyl)-1H-imidazol-4-yl)amino)quinazolin-2-yl)pyrrolidin-2-yl)methanol] | < 100 nM
7 | COc1cc(-n2cnc(Nc3nc(N4CCC[C@H]4C(N)=O)nc4cc(C(F)(F)F)ccc34)c2)cc(OC)c1OC [Compound 285a, (S)-1-(7-(trifluoromethyl)-4-((1-(3,4,5-trimethoxyphenyl)-1H-imidazol-4-yl)amino)quinazolin-2-yl)pyrrolidine-2-carboxamide] | < 100 nM
8 | COc1cc(-n2cnc(Nc3nc(N4CCC[C@H]4CO)c4ccc(C(F)(F)F)cc4n3)c2)cc(OC)c1OC [Compound 286b, (S)-(1-(7-(trifluoromethyl)-2-((1-(3,4,5-trimethoxyphenyl)-1H-imidazol-4-yl)amino)quinazolin-4-yl)pyrrolidin-2-yl)methanol] | < 100 nM
9 | COc1cc(-n2cnc(Nc3nc(N4CCC[C@@H]4C(N)=O)nc4cc(C(F)(F)F)ccc34)c2)cc(OC)c1OC [Compound 287a, (R)-1-(7-(trifluoromethyl)-4-((1-(3,4,5-trimethoxyphenyl)-1H-imidazol-4-yl)amino)quinazolin-2-yl)pyrrolidine-2-carboxamide] | < 100 nM
10 | COc1cc(-n2cnc(Nc3nc(N4CCC[C@@H]4C(N)=O)nc4cc(F)ccc34)c2)cc(OC)c1OC [Compound 288a, (R)-1-(7-fluoro-4-((1-(3,4,5-trimethoxyphenyl)-1H-imidazol-4-yl)amino)quinazolin-2-yl)pyrrolidine-2-carboxamide] | < 100 nM
11 | COc1cc(-n2cnc(Nc3nc(N4CCC[C@H]4CO)nc4c3CCC4)c2)cc(OC)c1OC [Compound 289b, (S)-(1-(4-((1-(3,4,5-trimethoxyphenyl)-1H-imidazol-4-yl)amino)-6,7-dihydro-5H-cyclopenta[d]pyrimidin-2-yl)pyrrolidin-2-yl)methanol] | < 100 nM
12 | COc1cc(-n2cnc(Nc3nc(N4CCC[C@@H]4CO)nc4c3CCC4)c2)cc(OC)c1OC [Compound 290a, (R)-(1-(4-((1-(3,4,5-trimethoxyphenyl)-1H-imidazol-4-yl)amino)-6,7-dihydro-5H-cyclopenta[d]pyrimidin-2-yl)pyrrolidin-2-yl)methanol] | < 100 nM
13 | COc1cc(-n2cnc(Nc3nc(N4CCC[C@@H]4C(N)=O)nc4c3CCC4)c2)cc(OC)c1OC [Compound 291a, (R)-1-(4-((1-(3,4,5-trimethoxyphenyl)-1H-imidazol-4-yl)amino)-6,7-dihydro-5H-cyclopenta[d]pyrimidin-2-yl)pyrrolidine-2-carboxamide] | < 100 nM
14 | COc1cc(-n2cnc(Nc3nc(N4CCC[C@H]4C(N)=O)nc4c3CCC4)c2)cc(OC)c1OC [Compound 292a, (S)-1-(4-((1-(3,4,5-trimethoxyphenyl)-1H-imidazol-4-yl)amino)-6,7-dihydro-5H-cyclopenta[d]pyrimidin-2-yl)pyrrolidine-2-carboxamide] | < 100 nM
15 | COc1cc(-n2cnc(Nc3nc(N4CCC[C@@H]4CO)nc4cc(C(F)(F)F)ccc34)c2)cc(OC)c1OC [Compound 293a, (R)-(1-(7-(trifluoromethyl)-4-((1-(3,4,5-trimethoxyphenyl)-1H-imidazol-4-yl)amino)quinazolin-2-yl)pyrrolidin-2-yl)methanol] | < 100 nM
16 | COc1cc(-n2cnc(Nc3nc(N4CCC[C@@H]4CO)nc4ccoc34)c2)cc(OC)c1OC [Compound 294a, (R)-(1-(4-((1-(3,4,5-trimethoxyphenyl)-1H-imidazol-4-yl)amino)furo[3,2-d]pyrimidin-2-yl)pyrrolidin-2-yl)methanol] | < 100 nM

Row | SMILES | IC50
17 | COc1cc(-n2cnc(Nc3nc(N4CCC[C@@H]4CO)nc4c3CCCC4)c2)cc(OC)c1OC [Compound 295b, (R)-(1-(4-((1-(3,4,5-trimethoxyphenyl)-1H-imidazol-4-yl)amino)-5,6,7,8-tetrahydroquinazolin-2-yl)pyrrolidin-2-yl)methanol] | < 100 nM
18 | COc1cc(-n2cnc(Nc3nc(N4CCC[C@H]4CO)nc4c3CCCC4)c2)cc(OC)c1OC [Compound 296a, (S)-(1-(4-((1-(3,4,5-trimethoxyphenyl)-1H-imidazol-4-yl)amino)-5,6,7,8-tetrahydroquinazolin-2-yl)pyrrolidin-2-yl)methanol] | < 100 nM
19 | COc1cc(-n2cnc(Nc3nc(N4CCC[C@@H]4CO)nc4sccc34)c2)cc(OC)c1OC [Compound 297a, (R)-(1-(4-((1-(3,4,5-trimethoxyphenyl)-1H-imidazol-4-yl)amino)thieno[2,3-d]pyrimidin-2-yl)pyrrolidin-2-yl)methanol] | < 100 nM
20 | COc1cc(-n2cnc(Nc3nc(N4CCC[C@@H]4C(N)=O)nc4sccc34)c2)cc(OC)c1OC [Compound 298a, (R)-1-(4-((1-(3,4,5-trimethoxyphenyl)-1H-imidazol-4-yl)amino)thieno[2,3-d]pyrimidin-2-yl)pyrrolidine-2-carboxamide] | < 100 nM
21 | COc1cc(-n2cnc(Nc3nc(N4CCC[C@@H]4C(N)=O)nc4ccsc34)c2)cc(OC)c1OC [Compound 299a, (R)-1-(4-((1-(3,4,5-trimethoxyphenyl)-1H-imidazol-4-yl)amino)thieno[3,2-d]pyrimidin-2-yl)pyrrolidine-2-carboxamide] | < 100 nM
22 | COc1cc(-n2cnc(Nc3nc(N4CCC[C@@H]4C(N)=O)nc4ccoc34)c2)cc(OC)c1OC [Compound 300a, (R)-1-(4-((1-(3,4,5-trimethoxyphenyl)-1H-imidazol-4-yl)amino)furo[3,2-d]pyrimidin-2-yl)pyrrolidine-2-carboxamide] | < 100 nM
23 | COc1cc(-n2cnc(Nc3nc(N4CCC[C@@H]4CO)c4occc4n3)c2)cc(OC)c1OC [Compound 301b, (R)-(1-(2-((1-(3,4,5-trimethoxyphenyl)-1H-imidazol-4-yl)amino)furo[3,2-d]pyrimidin-4-yl)pyrrolidin-2-yl)methanol] | < 100 nM
24 | COc1cc(-n2cnc(Nc3nc(N4CCC[C@H]4C(N)=O)nc4c3CCCC4)c2)cc(OC)c1OC [Compound 302a, (S)-1-(4-((1-(3,4,5-trimethoxyphenyl)-1H-imidazol-4-yl)amino)-5,6,7,8-tetrahydroquinazolin-2-yl)pyrrolidine-2-carboxamide] | < 100 nM
25 | COc1cc(-n2cnc(Nc3nc(N4CCC[C@@H]4CO)nc4ccsc34)c2)cc(OC)c1OC [Compound 303a, (R)-(1-(4-((1-(3,4,5-trimethoxyphenyl)-1H-imidazol-4-yl)amino)thieno[3,2-d]pyrimidin-2-yl)pyrrolidin-2-yl)methanol] | < 100 nM
26 | COc1cc(-n2cnc(Nc3nc(N4CCC[C@@H]4CO)nc4ccccc34)c2)cc(OC)c1OC [Compound 304a, (R)-(1-(4-((1-(3,4,5-trimethoxyphenyl)-1H-imidazol-4-yl)amino)quinazolin-2-yl)pyrrolidin-2-yl)methanol] | < 100 nM
27 | COc1cc(-n2cnc(Nc3nc(N4CCC[C@@H]4C(N)=O)nc4ccccc34)c2)cc(OC)c1OC [Compound 305a, (R)-1-(4-((1-(3,4,5-trimethoxyphenyl)-1H-imidazol-4-yl)amino)quinazolin-2-yl)pyrrolidine-2-carboxamide] | < 100 nM
28 | COc1cc(-n2cnc(Nc3nc(N4CCC[C@@H]4CO)nc4cc(N5CCC[C@@H]5CO)ccc34)c2)cc(OC)c1OC [Compound 306a, ((2R,2′R)-1,1′-(4-((1-(3,4,5-trimethoxyphenyl)-1H-imidazol-4-yl)amino)quinazoline-2,7-diyl)bis(pyrrolidine-2,1-diyl))dimethanol] | < 100 nM
29 | COc1cc(-n2cnc(Nc3nc(N4CCC[C@@H]4CO)c4cc[nH]c4n3)c2)cc(OC)c1OC [Compound 307c, (R)-(1-(2-((1-(3,4,5-trimethoxyphenyl)-1H-imidazol-4-yl)amino)-7H-pyrrolo[2,3-d]pyrimidin-4-yl)pyrrolidin-2-yl)methanol] | < 100 nM
30 | COc1cc(-n2cnc(Nc3nc(N4CCC[C@@H]4CO)nc4[nH]ccc34)c2)cc(OC)c1OC [Compound 308b, (R)-(1-(4-((1-(3,4,5-trimethoxyphenyl)-1H-imidazol-4-yl)amino)-7H-pyrrolo[2,3-d]pyrimidin-2-yl)pyrrolidin-2-yl)methanol] | < 100 nM
31 | COc1cc(-n2cnc(Nc3nc(N4CCC[C@@H]4CO)c4ccsc4n3)c2)cc(OC)c1OC [Compound 309b, (R)-(1-(2-((1-(3,4,5-trimethoxyphenyl)-1H-imidazol-4-yl)amino)thieno[2,3-d]pyrimidin-4-yl)pyrrolidin-2-yl)methanol] | < 100 nM
